The target of this experiment is T1, Drak2 (Homo sapiens, UniProt O94768).
T1 sequence (O94768 1-372): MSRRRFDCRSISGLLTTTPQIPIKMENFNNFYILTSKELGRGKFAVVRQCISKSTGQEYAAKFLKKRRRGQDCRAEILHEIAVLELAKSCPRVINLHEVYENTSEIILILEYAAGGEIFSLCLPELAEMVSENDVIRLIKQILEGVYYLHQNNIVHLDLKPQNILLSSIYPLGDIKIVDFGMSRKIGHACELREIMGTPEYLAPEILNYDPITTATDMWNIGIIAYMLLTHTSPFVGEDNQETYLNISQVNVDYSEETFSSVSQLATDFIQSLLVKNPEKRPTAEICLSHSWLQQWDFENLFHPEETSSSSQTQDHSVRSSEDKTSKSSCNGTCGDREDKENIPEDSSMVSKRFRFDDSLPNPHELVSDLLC
The experiment in a line: Drak2 activity test, ADP-Glo kinase assay (Promega). Particulars: inhibition of Drak2 kinase activity, 2 h room temperature, activity range classes, read-out: IC50_Drak2. The format is biochemical. On the technique in general: In ADP-Glo the light output rises with the ADP produced.

As to `COc1cc(-c2cncc(-c3cc(NC(=O)CC4CC4)cs3)n2)ccc1C(=O)Nc1cn(C)nc1OC` [Example B42, 4-(6-(4-(2-cyclopropylacetamido)thiophen-2-yl)pyrazin-2-yl)-2-methoxy-N-(3-methoxy-1-methyl-1H-pyrazol-4-yl)benzamide], the IC50 lay within 101 to 1000 nM.
For `CCCCC(=O)Nc1csc(-c2cncc(-c3ccc(OC)c(S(C)(=O)=O)c3)n2)c1` [Example 221] the value was 101 to 1000 nM.
In the case of `COc1cc(-c2cncc(-c3cc(NC(=O)CC45CC(C4)C5)cs3)n2)ccc1C(=O)Nc1nnco1` [Example B80, 4-(6-(4-(2-(bicyclo[1.1.1]pentan-1-yl)acetamido)thiophen-2-yl)pyrazin-2-yl)-2-methoxy-N-(1,3,4-oxadiazol-2-yl)benzamide], the IC50 lay in the range of 11 to 100 nM.
Consider `CCCCC(=O)Nc1csc(-c2cncc(-c3ccc(C(=O)N(C)C4CCN(CC(F)(F)F)CC4)c(OC)c3)n2)c1` [Example B70, 2-methoxy-N-methyl-4-(6-(4-pentanamidothiophen-2-yl)pyrazin-2-yl)-N-(1-(2,2,2-trifluoroethyl)piperidin-4-yl)benzamide], for which the IC50 is 101 to 1000 nM.
For `COc1cc(-c2cncc(-c3cc(NC(=O)CC4CCC4)cs3)n2)ccc1OCC(=O)N1CCN(C)CC1` [Example 176, 2-cyclobutyl-N-{5-[6-(3-methoxy-4-{[2-(4-methylpiperazin-1-yl)-2-oxoethyl]oxy}phenyl)pyrazin-2-yl]thiophen-3-yl} acetamide] the value was below 10 nM; for `COc1cc(-c2cncc(-c3cc(NC(=O)CC4CCC4)cs3)n2)ccc1C(=O)N1CCN(C2CCN(C)CC2)CC1` [Example B51, 2-cyclobutyl-N-(5-(6-(3-methoxy-4-(4-(1-methylpiperidin-4-yl)piperazine-1-carbonyl)phenyl)pyrazin-2-yl)thiophen-3-yl)acetamide], 11 to 100 nM.
For `CCCCC(=O)Nc1csc(-c2cncc(-c3ccc(C(=O)Nc4ncc[nH]4)c(OC)c3)n2)c1` [Example B5, 2-methoxy-4-(6-(4-pentanamidothiophen-2-yl)pyrazin-2-yl)-N-(1H-imidazol-2-yl) benzamide] the value was 101 to 1000 nM; for `CCCCC(=O)Nc1csc(-c2cncc(-c3ccc(C(=O)Nc4nnn[nH]4)c(OC)c3)n2)c1` [Example B4, 2-methoxy-4-(6-(4-pentanamidothiophen-2-yl)pyrazin-2-yl)-N-(1H-tetrazol-5-yl)benzamide], 11 to 100 nM; for `COc1cc(-c2cncc(-c3cc(NC(=O)CC4CCCCC4)cs3)n2)ccc1C(=O)Nc1nnnn1C` [Example B28, 2-methoxy-4-(6-(4-(2-cyclohexylacetamido)thiophen-2-yl)pyrazin-2-yl)-N-(1-methyl-1H-tetrazol-5-yl)benzamide], 101 to 1000 nM.
As to `CCCCC(=O)Nc1csc(-c2cncc(-c3ccc(S(C)(=O)=O)c(OC)c3)n2)c1` [Example A42, N-(5-(6-(3-methoxy-4-(methylsulfonyl)phenyl)pyrazin-2-yl)thiophen-3-yl)pentanamide], the IC50 was 101 to 1000 nM.
For `COc1cc(-c2cncc(-c3cc(NC(=O)CC4CCC4)cs3)n2)ccc1C(=O)N(C)C1CCN(C2CC2)CC1` [Example B96, 4-(6-(4-(2-cyclobutylacetamido)thiophen-2-yl)pyrazin-2-yl)-N-(1-cyclopropylpiperidin-4-yl)-2-methoxy-N-methylbenzamide] the value was 11 to 100 nM; for `Cc1nn(C)c2cc(-c3cncc(-c4cc(NC(=O)CC5CCC5)cs4)n3)ccc12` [Example A51, 2-cyclobutyl-N-(5-(6-(1,3-dimethyl-1H-indazol-6-yl)pyrazin-2-yl)thiophen-3-yl)acetamide], 101 to 1000 nM; for `CCCCC(=O)Nc1csc(-c2cncc(-c3ccc(Cl)c(OC)c3)n2)c1` [Example A16, N-(5-(6-(4-chloro-3-methoxyphenyl)pyrazin-2-yl)thiophen-3-yl)pentanamide], 1000 to 10000 nM.
For `COc1ccc(-c2cncc(-c3cc(NC(=O)C(C)(C)C)cs3)n2)cc1OC` [Example A5, N-(5-(6-(3,4-dimethoxyphenyl)pyrazin-2-yl)thiophen-3-yl)pivalamide] the value was 101 to 1000 nM; for `COc1cc(-c2cncc(-c3cc(NC(=O)CC4(C)COC4)cs3)n2)ccc1C(=O)N(C)C1CCN(C)CC1` [Example B82, 2-methoxy-N-methyl-4-(6-(4-(2-(3-methyloxetan-3-yl)acetamido)thiophen-2-yl)pyrazin-2-yl)-N-(1-methylpiperidin-4-yl)benzamide], 101 to 1000 nM; for `CCCCC(=O)Nc1csc(-c2cncc(-c3ccc(C(=O)N(C)C4CCN(c5ncccn5)CC4)c(OC)c3)n2)c1` [Example B72, 2-methoxy-N-methyl-4-(6-(4-pentanamidothiophen-2-yl)pyrazin-2-yl)-N-(1-(pyrimidin-2-yl)piperidin-4-yl)benzamide], 101 to 1000 nM.
For `CCCCC(=O)Nc1csc(-c2cncc(-c3ccc(OCCN4CCSCC4)c(OC)c3)n2)c1` [Example 193] the value was 11 to 100 nM; for `CCCCC(=O)Nc1csc(-c2cncc(-c3ccc(C(=O)OC)s3)n2)c1` [Example 222, methyl 5-(6-(4-pentamidothiophen-2-yl)pyrazin-2-yl) thiophen-2-carboxylate], 101 to 1000 nM.
On to `COc1cc(-c2cncc(-c3cc(NC(=O)CC4CCC4)cs3)n2)ccc1S(=O)(=O)N(C)C1CCN(C)CC1` [Example B104, 2-cyclobutyl-N-(5-(6-(3-methoxy-4-(N-methyl-N-(1-methylpiperidin-4-yl)sulfamoyl)phenyl)pyrazin-2-yl)thiophen-3-yl)acetamide], for which the IC50 is 11 to 100 nM.
For `COc1cc(-c2cncc(-c3cc(NC(=O)CC4CCC4)cs3)n2)ccc1OCC(=O)N1CCOCC1` [Example 191, 2-Cyclobutyl-N-{5-[6-(3-methoxy-4-{[2-(morpholin-4-yl)-2-oxoethyl]oxy}phenyl)pyrazin-2-yl]thiophen-3-yl} acetamide] the value was below 10 nM; for `CCCCCCc1csc(-c2cncc(-c3ccc(OC)c(OC)c3)n2)c1` [Example 188, 2-(3,4-Dimethoxyphenyl)-6-(4-hexylthiophen-2-yl) pyrazine], 1000 to 10000 nM; for `COc1cc(-c2cncc(-c3cc(NC(=O)CC4CC4)cs3)n2)ccc1C(=O)N(C)CCN(C)C` [Example B56, 4-(6-(4-(2-cyclopropylacetamido)thiophen-2-yl)pyrazin-2-yl)-N-(2-(dimethylamino)ethyl)-2-methoxy-N-methylbenzamide], below 10 nM.
In the case of `COc1ccc(-c2cncc(-c3cc(NC(=O)C4CCC4)cs3)n2)cc1Cl` [Example A17, N-(5-(6-(3-chloro-4-methoxyphenyl)pyrazin-2-yl)thiophen-3-yl)cyclobutanecarboxamide], the IC50 was in the range of 101 to 1000 nM.
For `COc1cc(-c2cncc(-c3cc(NC(=O)CC4CCC4)cs3)n2)ccc1C(=O)N(C)C1CC2(C1)CN(C)C2` [Example B93, 4-(6-(4-(2-cyclobutylacetamido)thiophen-2-yl)pyrazin-2-yl)-2-methoxy-N-methyl-N-(2-methyl-2-azaspiro[3.3]heptan-6-yl)benzamide] the value was 11 to 100 nM.
For `COc1cc(-c2cncc(-c3cc(NC(=O)CC4CCC4)cs3)n2)ccc1OCCN1CCOCC1` [Example 169, 2-cyclobutyl-N-(5-(6-(3-methoxy-4-(2-morpholinylethoxy)phenyl)pyrazin-2-yl)thiophen-3-yl) acetamide] the value was 11 to 100 nM; for `COc1cc(-c2cncc(-c3cc(NC(=O)CC4CCC4)cs3)n2)ccc1OCCN1CCN(C2CCN(C)CC2)CC1` [Example 177, 2-cyclobutyl-N-(5-{6-[3-methoxy-4-({2-[4-(1-methylhexahydropyridin-4-yl)piperazin-1-yl]ethyl}oxy)phenyl]pyrazin-2-yl}thiophen-3-yl) acetamide], 11 to 100 nM; for `COc1cc(-c2cncc(-c3cc(NC(=O)CC4CCC4)cs3)n2)ccc1OCCN1CC2(CN(C)C2)C1` [Example 178, 2-cyclobutyl-N-{5-[6-(3-methoxy-4-{[2-(6-methyl-2,6-diazaspiro [3.3]hept-2-yl)ethyl]oxy}phenyl)pyrazin-2-yl]thiophen-3-yl} acetamide], 11 to 100 nM.
Take `COc1cc(-c2cncc(-c3nc(NC(=O)CC4CCC4)cs3)n2)ccc1C(=O)N(C)C1CCN(C)CC1` [Example 223, 4-(6-{4-[(2-cyclobutylacetyl)amino]-1,3-thiazole-2-yl}pyrazin-2-yl)-2-methoxy-N-methyl-N-(1-methylhexahydropyridin-4-yl) benzamide]: the IC50 was 101 to 1000 nM.
As to `CCCCC(=O)Nc1csc(-c2cncc(-c3ccc(C#N)c(OC)c3)n2)c1` [Example A20, N-(5-(6-(4-cyano-3-methoxyphenyl)pyrazin-2-yl)thiophen-3-yl)pentanamide], the IC50 fell in the range of 101 to 1000 nM.
For `CCCCC(=O)Nc1csc(-c2nccc(-c3ccc(OC)c(OC)c3)n2)c1` [Example A11, N-(5-(4-(3,4-dimethoxyphenyl)pyrimidin-2-yl)thiophen-3-yl)pentanamide] the value was above 10000 nM.
For `COc1cc(-c2cncc(-c3cc(NC(=O)C(C)(C)C4CC(F)(F)C4)cs3)n2)ccc1C(=O)N(C)C1CC2(C1)CN(C)C2` (centres unmarked) [Example 203, 4-[6-(4-{[2-(3,3-difluorocyclobutyl)-2-methylpropionyl]amino}thiophen-2-yl)pyrazin-2-yl]-2-methoxy-N-methyl-N-(2-methyl-2-azaspiro [3.3]hept-6-yl) benzamide] the value was 11 to 100 nM.
Take `CCCCC(=O)Nc1csc(-c2cncc(-c3ccc(C(=O)N4CCN(C)CC4)c(OC)c3)n2)c1` [Example B37, N-(5-(6-(3-methoxy-4-(4-methylpiperazine-1-carbonyl)phenyl)pyrazin-2-yl)thiophen-3-yl)pentanamide]: the IC50 was in the range of 11 to 100 nM.

The record behind these values is patent US20240308992A1 (Biopolar Youtang(Guangdong) Pharmaceutical Co., Ltd., priority 2021, published 2024).
